Common to all, as to format: cell-based
One experiment addresses T1, EGFR (Homo sapiens, UniProt P00533).
T1 construct: expressed in transfected cells; host or cells: NIH3T3 mouse fibroblasts, retroviral vector
The experiment in a line: Receptor tyrosine kinase inhibition, EGFR. The procedure, abridged:
(§1)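 For ELISA, cells kept overnight in 0.5% serum were switched to serum-free medium, given compound for 2 h at 37 °C, then ligand-stimulated for 5–10 min. Lysates were captured on receptor-specific antibody plates and probed with anti-phosphotyrosine antibody. For western blots, cells in 1% FBS received ligand for 7 min at room temperature before anti-phosphotyrosine immunoblotting.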

The next experiment deals with T2, FLK-1 (Mus musculus, UniProt P35918).
T2 construct: expressed in transfected cells; host or cells: NIH3T3 mouse fibroblasts, retroviral vector
The experiment in a line: Receptor tyrosine kinase inhibition, FLK-1. In short, it runs like this:
as §1

The test system of a further experiment is PDGFR. The experiment in a line: Receptor tyrosine kinase inhibition, PDGFR. To be noted: for IC50: W = done in Western assay, read-out: PDGFR IC50 (W). In short, it runs like this:
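Serum-starved cells treated with test compound for 2 hr at 37° C, then receptor phosphotyrosine measured by ELISA with anti-phosphotyrosine antibody and goat anti-rabbit IgG. Western blots used 7 min ligand stimulation at room temperature, vanadate-containing lysis and anti-phosphotyrosine immunodetection with ECL.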

The mark [1] stands for this setting: W = done in Western assay, read-out: FLK-1 IC50 (W).

Read-outs that look alike come from different tables or passages of the source. Some results are limits rather than exact numbers.

These results are taken from patent US6331555A, “Treatment of platelet derived growth factor related disorders such as cancers” (priority 1999, dated 2001).

T1 sequence (P00533 25-1210): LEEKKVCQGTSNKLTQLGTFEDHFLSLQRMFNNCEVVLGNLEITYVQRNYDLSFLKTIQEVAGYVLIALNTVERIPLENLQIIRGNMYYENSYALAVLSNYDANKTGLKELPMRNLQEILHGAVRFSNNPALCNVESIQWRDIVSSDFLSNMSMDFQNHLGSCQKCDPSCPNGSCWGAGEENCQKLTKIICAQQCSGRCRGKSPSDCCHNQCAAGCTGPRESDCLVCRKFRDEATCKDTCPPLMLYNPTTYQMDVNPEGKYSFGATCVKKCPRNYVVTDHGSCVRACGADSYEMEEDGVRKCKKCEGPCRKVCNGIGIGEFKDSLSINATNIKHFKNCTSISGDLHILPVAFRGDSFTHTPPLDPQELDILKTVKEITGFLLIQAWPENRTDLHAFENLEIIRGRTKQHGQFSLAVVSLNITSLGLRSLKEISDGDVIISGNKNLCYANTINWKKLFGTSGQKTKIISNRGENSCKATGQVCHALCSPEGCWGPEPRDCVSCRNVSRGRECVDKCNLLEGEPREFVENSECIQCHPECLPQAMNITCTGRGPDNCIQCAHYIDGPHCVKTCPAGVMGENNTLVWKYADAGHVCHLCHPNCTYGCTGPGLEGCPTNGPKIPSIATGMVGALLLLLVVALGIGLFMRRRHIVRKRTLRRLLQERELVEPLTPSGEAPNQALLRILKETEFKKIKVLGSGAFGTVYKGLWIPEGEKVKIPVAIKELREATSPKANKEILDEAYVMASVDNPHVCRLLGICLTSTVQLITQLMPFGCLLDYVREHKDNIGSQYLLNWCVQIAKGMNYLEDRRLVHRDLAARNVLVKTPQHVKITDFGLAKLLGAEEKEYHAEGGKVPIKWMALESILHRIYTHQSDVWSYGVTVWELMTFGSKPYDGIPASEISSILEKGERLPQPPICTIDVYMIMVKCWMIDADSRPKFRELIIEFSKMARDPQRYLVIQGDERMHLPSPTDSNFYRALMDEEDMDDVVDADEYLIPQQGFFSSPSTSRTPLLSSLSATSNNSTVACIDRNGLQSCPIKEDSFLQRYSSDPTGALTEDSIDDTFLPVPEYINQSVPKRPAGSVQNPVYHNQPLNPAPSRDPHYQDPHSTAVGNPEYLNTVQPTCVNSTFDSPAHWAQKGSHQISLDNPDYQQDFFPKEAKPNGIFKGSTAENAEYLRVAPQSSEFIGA
T2 sequence (P35918 20-1345): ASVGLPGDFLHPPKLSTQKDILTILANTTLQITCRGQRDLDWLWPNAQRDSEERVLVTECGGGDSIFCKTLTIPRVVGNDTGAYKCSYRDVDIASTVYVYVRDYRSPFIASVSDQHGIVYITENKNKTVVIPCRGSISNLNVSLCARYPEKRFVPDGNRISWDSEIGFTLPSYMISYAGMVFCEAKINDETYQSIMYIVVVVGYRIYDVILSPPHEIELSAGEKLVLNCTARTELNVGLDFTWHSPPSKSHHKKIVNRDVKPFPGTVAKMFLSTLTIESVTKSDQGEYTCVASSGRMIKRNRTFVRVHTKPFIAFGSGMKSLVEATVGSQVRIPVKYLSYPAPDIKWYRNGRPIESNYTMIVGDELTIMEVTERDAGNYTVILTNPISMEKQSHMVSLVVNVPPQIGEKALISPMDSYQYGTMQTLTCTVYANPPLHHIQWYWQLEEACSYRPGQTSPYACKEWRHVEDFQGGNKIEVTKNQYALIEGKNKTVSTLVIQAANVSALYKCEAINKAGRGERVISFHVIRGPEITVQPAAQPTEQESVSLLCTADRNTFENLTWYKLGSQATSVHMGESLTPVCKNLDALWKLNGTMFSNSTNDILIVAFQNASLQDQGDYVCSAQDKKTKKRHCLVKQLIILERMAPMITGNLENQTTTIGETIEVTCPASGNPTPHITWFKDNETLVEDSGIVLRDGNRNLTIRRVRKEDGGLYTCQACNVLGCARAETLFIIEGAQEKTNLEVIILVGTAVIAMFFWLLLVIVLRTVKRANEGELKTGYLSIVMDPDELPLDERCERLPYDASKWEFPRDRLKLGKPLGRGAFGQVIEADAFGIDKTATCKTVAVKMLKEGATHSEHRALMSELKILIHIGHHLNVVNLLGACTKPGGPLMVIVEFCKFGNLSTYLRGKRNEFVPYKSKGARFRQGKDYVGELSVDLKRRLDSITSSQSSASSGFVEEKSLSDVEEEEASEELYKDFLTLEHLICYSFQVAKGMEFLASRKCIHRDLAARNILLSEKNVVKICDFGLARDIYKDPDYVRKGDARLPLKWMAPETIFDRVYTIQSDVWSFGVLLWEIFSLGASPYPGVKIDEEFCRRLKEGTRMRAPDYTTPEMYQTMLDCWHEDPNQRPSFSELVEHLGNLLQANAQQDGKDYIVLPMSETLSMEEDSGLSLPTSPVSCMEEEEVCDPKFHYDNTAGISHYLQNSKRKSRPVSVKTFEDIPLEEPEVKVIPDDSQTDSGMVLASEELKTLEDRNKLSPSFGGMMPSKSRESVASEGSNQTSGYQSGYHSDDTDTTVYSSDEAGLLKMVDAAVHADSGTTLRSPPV

For the molecule `Cc1oncc1C(=O)Nc1ccc(C(F)(F)F)cc1` [Compound A10, 5-methylisoxazole-4 carboxylic acid-(4-trifluromethyl)-anilide], at EGFR, the “EGF receptor phosphorylation” value is “little if any effect on EGF-receptor or HER2 phosphorylation”.

In the case of `N#CC(=Cc1c[nH]c2ccccc12)C(N)=S` [Compound D11], the values for the IC50 at FLK-1 (read-out: FLK-1 IC50) and with PDGFR were above 50 µM and 8 µM, respectively.

As to `N#CC(=Cc1c[nH]c2ccccc12)c1[nH]nc(N)c1C#N` [Compound D14], on EGFR, the “EGF receptor phosphorylation” value is reported as “do not effect EGF or HER2 phosphorylation”. In addition, the IC50 was above 100 µM on EGFR (read-out: EGFR ID50) and above 50 µM on FLK-1 (read-out: FLK-1 IC50). Also, the “PDGF-R phosphorylation” value in the experiment on PDGFR is given as “inhibit PDGF-R phosphorylation”.

In the case of `CN(C)CCCn1cc(C=C(C#N)c2[nH]nc(N)c2C#N)c2ccccc21` [Compound D15], the IC50 on FLK-1 (read-out: FLK-1 IC50) was above 50 µM; in the experiment with PDGFR it was 19 µM.

`O=c1c2ccccc2nc(C=Cc2ccc(O)c(O)c2)n1CCO` [Compound F10]: the IC50 is above 50 µM at FLK-1 (read-out: FLK-1 IC50) and 5 µM in the experiment on PDGFR.

Regarding `Cc1cc2ncc(-c3ccccc3)nc2cc1C` [Compound G13], at EGFR, the “EGF receptor phosphorylation” value is on record as “do not effect EGF or HER2 phosphorylation”. Besides, the IC50 at FLK-1 (setting [1]) is above 10 µM. Besides, the “PDGF-R phosphorylation” value in the experiment with PDGFR is recorded as “inhibit PDGF-R phosphorylation”.

On to `COc1cc2ncc(-c3ccccc3)nc2cc1OC` [Compound G14], for which the “EGF receptor phosphorylation” value on EGFR was “do not effect EGF or HER2 phosphorylation”. For the same molecule, the values for the IC50 at FLK-1 (setting [1]) and with PDGFR were above 30 µM and 0.8 µM, respectively. The “PDGF-R phosphorylation” value with PDGFR is “inhibit PDGF-R phosphorylation”.

For the molecule `Cc1cc2nc(-c3ccccc3)c(=O)[nH]c2cc1C` [Compound G18], the IC50 on EGFR (W = done in Western assay, read-out: EGFR ID50 (W)) was found to be 500 µM; in the experiment with PDGFR, 10 µM.

Turning to `c1ccc(-c2cnc3cc4ccccc4cc3n2)cc1` [Compound G22], at EGFR (read-out: EGFR ID50), the IC50 is above 100 µM.
